Results: paper PMC7587396, “New Zileuton-Hydroxycinnamic Acid Hybrids: Synthesis and Structure-Activity Relationship towards 5-Lipoxygenase Inhibition” (Molecules, 2020)
pIC50: −log10 of the molar value. “Also recorded” adds a separate entry of the source.

What was measured:
5-LO [1] = target: T1, 5-LO (Homo sapiens, UniProt P09917); assay: 5-LO product biosynthesis assay in stimulated HEK293 cells co-transfected with 5-LO and FLAP; type: cell-based; parameters: expressed in transfected cells; host or cells: HEK293 cells, stably co-transfected (pcDNA3.1 5-LO, pBUDCE4.1 FLAP); conditions: compounds at 1 µM; result in words, compared with zileuton (1) and SAPE (2) at 1 µM; A23187 + arachidonic acid stimulation
T1 sequence (P09917 1-674): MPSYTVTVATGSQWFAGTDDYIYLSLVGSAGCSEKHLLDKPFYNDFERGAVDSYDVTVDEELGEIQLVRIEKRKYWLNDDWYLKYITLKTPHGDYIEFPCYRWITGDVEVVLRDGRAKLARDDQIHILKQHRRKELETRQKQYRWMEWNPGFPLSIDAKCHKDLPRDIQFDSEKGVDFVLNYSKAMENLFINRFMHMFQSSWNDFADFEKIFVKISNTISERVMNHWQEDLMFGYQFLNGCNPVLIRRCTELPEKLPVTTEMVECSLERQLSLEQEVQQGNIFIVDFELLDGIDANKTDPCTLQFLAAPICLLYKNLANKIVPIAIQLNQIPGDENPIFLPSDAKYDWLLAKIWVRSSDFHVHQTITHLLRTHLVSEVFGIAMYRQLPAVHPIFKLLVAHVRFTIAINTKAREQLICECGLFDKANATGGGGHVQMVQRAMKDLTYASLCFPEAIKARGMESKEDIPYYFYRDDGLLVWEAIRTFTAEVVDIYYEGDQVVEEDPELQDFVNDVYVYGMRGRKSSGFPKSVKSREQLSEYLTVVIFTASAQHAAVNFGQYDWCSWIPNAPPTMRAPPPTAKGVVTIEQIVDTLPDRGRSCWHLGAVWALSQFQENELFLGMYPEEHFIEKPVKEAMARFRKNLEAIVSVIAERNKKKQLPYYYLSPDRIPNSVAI
Protocol: All compounds, including known inhibitors zileuton (1) and SAPE (2), were assayed at 1 µM (Figure 1) for inhibition of LTs biosynthesis in stimulated HEK293 cells. These cells are stably transfected with human 5-LO and serves as a highly reproducible model of 5-LO product biosynthesis in which compounds can be preliminarily screened for anti-LTs activity before moving on to more complex systems. […] Esterification of benzo[b]thiophene-2-carboxylic acid to obtain benzyl to phenbutyl analogs (4–7) had no effect on the inhibitory activity of 5-LO. […] Even the addition of a hydroxyl (8) or methoxy (9) at para-position of the phenethyl group has no effect on the activity.
HEK293 cells were stably co-transfected with a pcDNA3.1 vector expressing 5-LO and a pBUDCE4.1 vector expressing 5-LO activating protein (FLAP) as previously reported. This represents a controlled model for the evaluation of 5-LO inhibition in a cellular system. For cell stimulation of 5-LO products, transfected HEK293 cells were collected following trypsinization, washed and the cell pellet was resuspended in Hank’s balanced salt solution (HBSS) (Lonza, Walkerville, MD) containing 1.6 mM CaCl2 at a concentration of 5 × 10^5 cells/mL. Cells were pre-incubated with each compound dissolved in DMSO at the indicated concentration for 5 min at 37 °C. Cells were then stimulated for 15 min at 37 °C with the addition of 10 µM calcium ionophore A23187 (Sigma-Aldrich, Oakville, ON, Canada) and 10 µM arachidonic acid (Cayman Chemical, Ann Arbor, MI). Stimulation was stopped and processed for RP-HPLC analysis as described previously.

[2] = Free radical scavenging activity assay (DPPH); conditions: DPPH stable radical, 30 min, absorbance 517 nm; read-out: Free radical scavenging activity IC50 (µM) [SEM]
Protocol: A mechanism by which 5-LO activity can be inhibited is through reductive inhibition of the ferric non-heme iron of the enzyme. Interactions with stable free radicals provides an evaluation of the reducing ability of the test compounds. Radical scavenging activities of compounds tested in stimulated PMNL were assayed using 2,2-Diphenyl-1-picrylhydrazyl (DPPH) as a stable radical and are expressed as IC50 concentrations in Table 1.
The free radical scavenging activity of test compounds was measured as previously described using 2,2-diphenyl-1-picrylhydrazyl (DPPH) as a stable radical with slight modifications. DPPH (200 µL) in ethanol (250 µM) was mixed with 200 µL of the test compounds (1, 5, 10, 25, 50, 75, and 100 µg/mL). Each mixture was then shaken vigorously and held in the dark for 30 min at room temperature. The absorbance of DPPH at 517 nm was then measured. The radical scavenging activity was expressed in terms of % inhibition of DPPH absorbance:% Inhibition = (A control − A test)/A control) × 100 where A control is the absorbance of the control (DPPH solution without test compounds) and A test is the absorbance of the test sample (DPPH solution plus compounds). Ascorbic acid was used as a positive control. Data were expressed as mean ± SEM of three independent experiments, each performed in triplicate. IC50 values were calculated from a sigmoidal concentration-response curve-fitting model with a variable slope on GraphPad Prism software.

5-LO [3] = target: T1, 5-LO; assay: 5-LO products biosynthesis assay in human PMNL cells; type: cell-based; parameters: 5-LO is highly expressed in PMNL; endogenous in cells; host or cells: human PMNL from peripheral blood of healthy volunteers; conditions: for Inhibition of the biosynthesis of 5-LO products in human PMNL cells: compounds at 1 µM, result in words, compared with zileuton (1), SAPE (2) or controls, thapsigargin stimulation
Text: To further probe the inhibitory activity of compounds that approached the inhibitory activity of zileuton (1) and SAPE (2), compounds were selected for further screening in PMNL (Figure 6). 5-LO is highly expressed in PMNL and these cells are important physiological producers of LTB4 [17]. […] The presence of the hydroxyl group in position 4 and the methoxy groups in positions 3 and 5 seems to be an ideal combination for inhibition of 5-LO (Figure 6). These structural changes may influence the availability, cell permeation, or even the stability of inhibitors in PMNL versus HEK293 cells. […] Human PMNL were prepared from peripheral blood of healthy consenting volunteers as described. Human PMNL are an important source of 5-LO metabolites and are relevant primary inflammatory cells for the evaluation of the best compounds identified during the screening process. PMNL were suspended in HBSS containing 1.6 mM CaCl2 (10^7 cells/mL) and pre-incubated with compounds dissolved in DMSO for 5 min at 37 °C in the presence of 0.4 U/mL of adenosine deaminase (Sigma-Aldrich, Oakville, On, Canada). Cells were then stimulated for 15 min at 37 °C with 1 μM thapsigargin (Sigma-Aldrich). Reactions were stopped by the addition of 0.5 mL of cold MeOH:CH3CN (1:1) and 50 ng of PGB2 as internal standard and samples were stored at -20 °C until processing for RP-HPLC analysis as indicated above.

Compound | Inhibition of the biosynthesis of 5-LO products in stimulated HEK293 cells (5-LO [1]) | IC50 [2] | pIC50 (5-LO [3]; 95% confidence interval: 0.25–0.53 μM, read-out: IC50 for the inhibition of 5-LO product biosynthesis in PMNL) | Inhibition of the biosynthesis of 5-LO products in human PMNL cells (5-LO [3]) | melting point
NC(=O)N(O)C(=O)CCc1ccccc1 [Compound 40] | inactive | – | – | – | –
CC(c1cc2ccccc2s1)N(O)C(N)=O (stereo not drawn) [Zileuton (1), zileuton] | – | > 100 µM | – | – | –
COc1cc(/C=C/C(=O)OCCc2ccccc2)cc(OC)c1O [SAPE (2), sinapic acid phenethyl ester, reference compound] | – | 25.4 µM | – | – | –
COc1cc(/C=C/C(=O)c2cc3ccccc3s2)cc(OC)c1O [Compound 28] | equipotent to zileuton (1); also recorded: non-significantly different than zileuton (1) and SAPE (2) | 48.9 µM | 6.43 | three times as active as zileuton (1); also recorded: exceeding zileuton’s (1) inhibitory capacity in PMNL by more than three times | –
O=C1O[C@H]([C@@H](O)CO)C(O)=C1O [Vitamin C, Ascorbic acid, reference compound] | – | 21.8 µM | – | – | –
O=C(/C=C/c1ccc(O)cc1)c1cc2ccccc2s1 [Compound 16] | non-significantly different than Zileuton (1) | 68.9 µM | – | neither compound showed significant inhibition compared to controls | –
COc1cc(/C=C/C(=O)c2cc3ccccc3s2)cc(O)c1OC [Compound 31] | inactive; also recorded: less active than compound 28 | 6.6 µM | – | total loss of activity; also recorded: inactive | –
COc1cc(/C=C/C(=O)N(O)C(N)=O)ccc1O [Compound 35] | inactive | – | – | – | –
O=C(OCCc1ccccc1)c1cc2ccccc2s1 [Compound 5, Phenethyl 1-benzothiophene-2-carboxylate] | – | – | – | – | 61 to 62 °C
NC(=O)N(O)C(=O)c1ccccc1 [Compound 38, 1-Hydroxy-1-(benzoyl)urea] | inactive | – | – | – | 127 to 129 °C
COc1ccc(/C=C/C(=O)N(O)C(N)=O)cc1OC [Compound 36] | inactive | – | – | – | –
COc1cc(/C=C/C(=O)N(O)C(N)=O)cc(OC)c1O [Compound 37] | inactive | 13.3 µM | – | inactivity; also recorded: inactive | –
NC(=O)N(O)C(=O)Cc1ccccc1 [Compound 39, 1-Hydroxy-1-(2-phenylacetyl)urea] | inactive | – | – | – | 133 to 135 °C
COc1ccc(/C=C/C(=O)c2cc3ccccc3s2)cc1O [Compound 17] | – | 64.7 µM | – | less active than zileuton (1) and SAPE (2) | –
COc1cc(OC)c(/C=C/C(=O)c2cc3ccccc3s2)c(OC)c1 [Compound 27] | equipotent to Zileuton (1) | 6.9 µM | – | complete loss of the 5-LO inhibition | –
Cc1cc(/C=C/C(=O)c2cc3ccccc3s2)cc(C)c1O [Compound 29] | does not seem to be favorable for the inhibition of 5-LO products | – | – | – | –
COc1cc(/C=C/C(=O)c2cc3ccccc3s2)cc(OC)c1 [Compound 20] | not-significantly different than zileuton (1) | – | – | – | –
COc1cc(O)cc(OC)c1/C=C/C(=O)c1cc2ccccc2s1 [Compound 30] | less active than compound 28 | – | – | – | –
COc1cc(/C=C/C(=O)c2cc3ccccc3s2)ccc1O [Compound 18] | not-significantly different than zileuton (1) | 68.8 µM | – | less active than zileuton (1) and SAPE (2) | –
COc1cc(/C=C/C(=O)c2cc3ccccc3s2)cc(OC)c1OC [Compound 26] | inactive | – | – | – | –
